Literature values as cited in patent publication US20180289729A1, “COMBINATION THERAPY FOR TREATMENT OF HUMAN NEURODEGENERATIVE DISEASES” (priority 2017, published 2018).

How the values were obtained:
[1] = system: proliferating neural stem and progenitor cells within the hippocampal dentate gyrus; details: both young and "old" mice models
hippocampal neurogenesis = details: rat models

| SMILES | increase in the number of proliferating neural stem and progenitor cells within the hippocampal dentate gyrus [1] | effect on hippocampal neurogenesis (hippocampal neurogenesis) |
| --- | --- | --- |
| Cc1cccc(-c2n[nH]cc2-c2ccc3ncccc3n2)n1 [2-(3-(6-methylpyricin-2-yl)-1H-pyrazol-4-yl)-1,5-naphthyridine] | two-fold increase | – |
| CCCCCCC(C)(C)c1cc(O)c2c(c1)OC(C)(C)[C@@H]1CC=C(CO)C[C@@H]21 [[(6aR)-trans-3-(1,1-dimethylheptyl)-6a, 7,10,10a-tetrahydro-1-hydroxy-6,6-dimethyl-6H-dibenzo [b,d]pyran-9-methanol]] | – | dramatic effect |
